Laboratory results: patent US20220306647A1, “NOVEL INDOLE-2-CARBOXAMIDES ACTIVE AGAINST THE HEPATITUS B VIRUS (HBV)” (AICURIS GMBH & CO. KG, priority 2019, published 2022)

Key:
HBV (HepAD38 cells) = experiment: HBV replication assay: determination of HBV DNA from the supernatants of HepAD38 cells; assay type: cell-based; settings: Hepatitis B virus, 144 h, HBV DNA in HepAD38 supernatant at day 6, qPCR, read-out: Cell activity
Summary of the method: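 HepAD38 cells seeded without tetracycline and treated with half-log compound dilutions; tetracycline-treated wells serve as cell control. On day 6, supernatant HBV DNA was purified and quantified by real-time PCR against plasmid standards; EC50 from non-linear regression of relative copy numbers, three experiments in triplicate.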

[1] = biological target: T1, HBV core protein (C-terminal truncated core protein, 149 amino acids of the N-terminal assembly domain, BODIPY-FL labelled) (UniProt P03146); experiment: Biochemical capsid assembly assay (fluorescence quenching); settings: assembly started with NaCl, fluorescence read after 6 min, read-out: Assembly activity
T1 construct: fused on or other part: A single cysteine added after residue 149, at position 150; It carries the BODIPY-FL maleimide label
Summary of the method: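 Fluorescence quenching of BODIPY-FL-labelled core dimers (1.0 to 2.0 μM) in 50 mM HEPES pH 7.5; compounds at 8 concentrations, 0.5 log-unit dilutions from top 100, 31.6 or 10 μM, 0.5% DMSO. Assembly started with NaCl to […]; fluorescence (ex 477/em 525 nm) read after 6 min. EC50 by non-linear regression.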

T1 sequence (P03146 whole entry, the tested form may be a part): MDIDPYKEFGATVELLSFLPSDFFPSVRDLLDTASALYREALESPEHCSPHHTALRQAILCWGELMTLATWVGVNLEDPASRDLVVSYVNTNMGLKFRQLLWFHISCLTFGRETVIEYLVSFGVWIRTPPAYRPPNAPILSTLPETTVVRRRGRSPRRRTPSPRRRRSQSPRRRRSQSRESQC

SMILES | EC50 (HBV (HepAD38 cells)) [µM] | IC50 [1] [µM]
CN(C(=O)c1cnn2c1CN(C(=O)c1cc3c(Cl)cccc3[nH]1)CC2)C1(c2ccc(C(=O)O)cc2)CC1 [Example 51, 4-{1-[N-methyl-5-(4-chloro-1H-indole-2-carbonyl)-4H,5H,6H,7H-pyrazolo[1,5-a]pyrazine-3-amido]cyclopropyl}benzoic acid] | < 1 | < 5
CN(C(=O)c1cnn2c1CN(C(=O)c1cc3c(F)ccc(F)c3[nH]1)CC2)C1(c2ccc(C(=O)O)cc2)CC1 [Example 76, 4-{1-[N-methyl-5-(4,7-difluoro-1H-indole-2-carbonyl)-4H,5H,6H,7H-pyrazolo[1,5-a]pyrazine-3-amido]cyclopropyl}benzoic acid] | < 1 | < 5
Cc1c(F)ccc2[nH]c(C(=O)N3CCn4ncc(C(=O)N(C)C5(c6ccc(C(=O)O)cc6)CC5)c4C3)cc12 [Example 53, 4-{1-[N-methyl-5-(5-fluoro-4-methyl-1H-indole-2-carbonyl)-4H,5H,6H,7H-pyrazolo[1,5-a]pyrazine-3-amido]cyclopropyl}benzoic acid] | < 1 | < 5
O=C(c1cc2ccccc2[nH]1)N1CCc2nn3c(c2C1)C(=O)N(CCOCc1ccccc1)C1(CC3)CC1 [Example 90, 13′-[2-(benzyloxy)ethyl]-4′-(1H-indole-2-carbonyl)-4′,8′,9′,13′-tetraazaspiro[cyclopropane-1,12′-tricyclo[7.5.0.0^2,7]tetradecane]-1′,7′-dien-14′-one] | < 1 | < 5
